Marks after values point to notes of the source that are not given here.
Assays:
Format in all cases: cell-based, HBV genotype A
[1] = tested on: L180M, A194T, M204V (LMAT) mutant HBV-DNA construct transfected into HepG2 cells; assay: transient transfection cell culture assay, extracellular HBV-DNA by real-time PCR, rtL180M+rtA194T+rtM204V (LMAT) construct
Text: (§1) An extended (1.28×) HBV genome was cloned (HBV genotype A, subtype adw2) into a pBluescript KS (+) plasmid (Stratagene, La Jolla, Calif., USA), as described by Tacke et al, J Virol 78:8524-8535, 2004.
(§2) Three mutated HBV plasmids were constructed using a Quikchange (Registered) II site-directed mutagenesis kit (Stratagene, La Jolla, Calif., USA). Plasmids contained either mutations rtL180M and rtM204V (LM), rtL180M, rtM204V and rtA194T (LMAT), or rtA194T (AT). […]
(§3) HBV viral particles from the cell culture supernatant were precipitated using 26% polyethylene glycol (PEG 8000, Sigma, St. Louis, Mo., USA), followed by DNase 1 digestion (Takara, Shiga, Japan). […] A quantitative real-time PCR was used to quantify HBV-DNA. Briefly, a 189-bp fragment of the X region was amplified in a LightCycler system (Roche), using the QuantiTect Probe PCR kit (Qiagen) and the following probes and primers: 3FL-XHybprobe (5′-ACGGGGCGCACCTCTCTTTACGCGG fluorescein-3′ (SEQ ID NO:23)), 5LC-Xhybprobe (5′LCRed 640 nm-CTCCCCGTCTGTGCCTTCTCATCTGC PH-3′ (SEQ ID NO:24)), X sense (5′-GAC GTC CTT TGT YTA CGT CCC GTC-3′ (SEQ ID NO:25)), and X antisense (5′-TGCAGAGGTGAAGCGAAGTGCACA-3′ (SEQ ID NO:26)). […]
(§4) After adjusting for transfection efficiency, IC50 values were calculated from the HBV viral load using the following formula (Vandamme et al, Antiviral methods and protocols: 231, 2000): log IC50=log conc. […]

[2] = tested on: A194T (AT) mutant HBV-DNA construct transfected into HepG2 cells; assay: transient transfection cell culture assay, extracellular HBV-DNA by real-time PCR, rtA194T (AT) construct
Text: as §1, §2, §3, §4

[3] = tested on: L180M + M204V (LM) mutant HBV-DNA construct transfected into HepG2 cells; assay: transient transfection cell culture assay, extracellular HBV-DNA by real-time PCR, rtL180M+rtM204V (LM) construct
Text: as §1, §2, §3, §4

[4] = tested on: WT HBV-DNA construct transfected into HepG2 cells; assay: transient transfection cell culture assay, extracellular HBV-DNA by real-time PCR, WT construct
Description: as §1
HepG2 cells were grown in Eagles minimum essential medium (LGC Promochem, Middlesex, UK), supplemented with 10% v/v fetal bovine serum at 37° C. and 5% v/v CO2. For cDNA transfections, 3×10^5 cells were seeded to semi-confluence onto each well of a 6-well plate and allowed to adhere overnight. […]
as §3
Extracellular HBV-DNA was examined by real-time PCR, 5 days post-transfection and IC50 values were calculated.

Question: What does the source list for CC(C)OC(=O)OCOP(=O)(CO[C@H](C)Cn1cnc2c(N)ncnc21)OCOC(=O)OC(C)C.O=C(O)/C=C/C(=O)O [tenofovir, Tenofovir disoproxil fumarate]?
Answer: IC50 ([1]; M204V (LMAT) construct, HepG2 cells, value above the cell toxic level of tenofovir): > 120 µM; Fold IC50, extracellular DNA ([1]; M204V (LMAT) versus WT, >10-fold = resistance): >10*^b; IC50 ([2]; A194T (AT) construct, HepG2 cells, 5 days post-transfection): 95 µM; Fold IC50, extracellular DNA ([2]; A194T (AT) versus WT, 5-10 fold = partial resistance): 7.6^a; IC50 ([3]; L180M + M204V (LM) construct, HepG2 cells, 5 days post-transfection): 71 µM; Fold IC50, extracellular DNA ([3]; L180M + M204V (LM) versus WT, 5-10 fold = partial resistance): 5.7^a; Fold IC50, extracellular DNA ([4]; WT HBV construct (reference)): 1^; IC50 ([4]; WT HBV construct, 5 days post-transfection): 12.4 µM
